US12629376B2, “Composition for use in the treatment of ApoL1-associated disease” (RAMBAM MED-TECH LTD., priority 2020, dated 2026)

Legend:
[1] = test system: ApoL1-G1-induced T-REx-293 stable cell line; assay: ApoL1-G1-induced cell viability assay (CellTiter-Glo); format: cell-based, human; conditions: for viability of ApoL1-G1 expressing cells: FIG. 1, 16 hours incubation, 0.08-10 μM, 1 ng/ml Doxycycline, luminescence live-cell count; for cell protective effect against ApoL1 toxicity: cell-based high throughput screening of 200,000 compounds, doxycycline-induced ApoL1-G1 T-REx-293 cells; for cell protective effect against ApoL1 toxicity / cell toxicity: 10 μM; for cell toxicity: high throughput screening, T-REx-293 cells
Method: ApoL1-G1-induced T-REx-293 stable cell line was generated by introducing Flag-tagged human G1 ApoL1 variant DNA (with African genomic sequence background) into the pcDNA4/TO plasmid, which yield expression upon Doxycycline addition. Cells were cultured in DMEM (Gibco, 41965-039) supplemented with 10% FBS, 1% penicillin-streptomycin at 37° C.
In order to estimate the effect of compounds 1, 3 and 7 on ApoL1-induced cells a cell viability assay was performed as following: cells were seeded at density 23K cells per well (96-well plate). Prior to seeding, wells were coated with Fibronectin (Biological industries, 03-090-1-05) for 1 hour at 37° C. On the following day, cells were switched to the same growth medium but containing 1 ng/ml Doxycycline (Sigma, D9891) with different concentrations of compounds 1, 3 or 7, for 16 hours. Then, cells were subjected to viability assay according to manufacturer's instructions, using CellTiter-Glo luminescent cell viability assay kit (Promega, G7570). The plate was read using Infinite 200 PRO for luminescence, which indicated live-cell count.
Induction of ApoL1-G1 variant by doxycycline causes toxicity in T-REx-293 cell line. In order to identify potential inhibitors of ApoL1 toxicity, a cell-based high throughput screening of 200,000 chemical compounds was performed. Cells were incubated with a compound solution (at 10 μM concentration).

[2] = test system: T-REx-293 cells; assay: cell toxicity assay for anti-proliferative effect (Cell-Titer Glo); format: cell-based; conditions: FIG. 2, 10 μM, 16 hours
Method: T-REx-293 cells were seeded at a density of 25K cells/well on fibronectin in 96-well plates and grown in DMEM with 10% FBS, 1% P/S medium. 24 hours post-seeding medium was changed to a fresh medium comprising the tested compounds (KS-1, KS-2, or KS-8) at a concentration of 5-10 μM. Non-treated cells were used as a negative control. After 16 hours one plate of the cells was taken for cell viability test using Cell-Titer Glo reagent (Promega). Cells on the other plate were imaged using Incucyte ZOOM system.

| Compound | viability of ApoL1-G1 expressing cells [1] | cell protective effect against ApoL1 toxicity [1] | cell toxicity [1] | cell count determined via luminescence signal (relative light units, RLU) versus non-treated cells [2] |
| --- | --- | --- | --- | --- |
| Cc1c(C)n(Cc2ccc(Br)cc2)c(=O)n(Cc2ccc(Br)cc2)c1=O [Compound 1] | concentration dependent viability increase | highest cell protective effect | without exhibiting a significant cell toxicity |  |
| O=c1c2ccccc2n(Cc2ccc(Cl)cc2)c(=O)n1Cc1ccc(Cl)cc1 [Compound 3] | concentration dependent viability increase | highest cell protective effect | without exhibiting a significant cell toxicity |  |
| COc1ccccc1C(=O)Nc1cccc(N2CCC(NC(C)c3cnn(-c4ccccc4)c3)CC2)c1 (stereo not drawn) [Compound 7] | concentration dependent viability increase | highest cell protective effect | without exhibiting a significant cell toxicity |  |
| O=c1c2ccccc2n(Cc2ccncc2)c(=O)n1Cc1ccc(Cl)cc1 [KS-1] |  |  |  | lower |
| O=c1c2ccccc2n(Cc2ccc(Cl)cc2)c(=O)n1Cc1cccs1 [KS-2] |  |  |  | lower |
| O=c1c2ccccc2n(Cc2ccc(Cl)cc2)c(=O)n1C1CC=CC1 [KS-8] |  |  |  | lower |
